Measured values taken from patent publication US11247973B2 (The University of Durham, priority 2016, dated 2022).
Values joined by “and” are separate entries in the source; they are usually repeats but may differ in a detail not shown here. Identical values can stand only once. Like-named read-outs stand apart in the source and are kept apart here.

Tests used:
Type in all cases: cell-based
[1] = Cell cytotoxicity CC50 assay (A549 and HeLa cells); conditions: human, 6-8 days, DMEM+2% FCS
Text: (§1) Cells were obtained from ATCC and the virus preparation was subjected to one round of centrifugation through a 40% (V/V) glycerol to remove any interferon produced from infected cells. Growth medium was Dulbecco's modified Eagle's medium (DMEM) with 10% (v/v) foetal calf serum (FCS), Viral maintainance medium was DMEM+2% (v/v) FCS.
Cell Cytotoxicity—CC50 (Concentration at which 50% Cell Toxicity is Observed):
(§2) A549 cells and HeLa cells were used to seed a set of 96 well plates grown until 50% confluent, a 2 fold serial dilution of the compound was performed on each cell line with DMSO (only) as control starting with 100 μM of the compound. Medium used was DMEM+2% FCS (normal medium for viral growth).
(§3) Cells were allowed to grow for 6-8 days to mimic a TCID50 assay after which cell viability was determined by adding Almar blur (similar to XT) and reading at 600 nm (excitation 540 nm).

[2] = test system: RSV; experiment: Cytopathic effect (CPE) assay; conditions: human respiratory syncytial virus, read-out: CPE IC50
Text: as §1
Cytopathic Effect (CPE) Assay—IC50:
as §2, §3

[3] = test system: HepG2 cells; experiment: Cell cytotoxicity CC50, HepG2 cells (CellTox Green); conditions: 48-hour incubation, multiple values = multiple test occasions, read-out: Tox CC50
Protocol: (§4) HepG2 cells, in media supplemented with 10% fetal bovine serum (FBS), were seeded at […] into white walled 96 well plates and incubated at 37° C., 5% CO2. Twenty-four hours post seeding media was removed and replaced with media supplemented with 2% FBS and containing final compound concentrations equal to those tested in parallel virus plaque assays. Following a further 48-hour incubation cell cytotoxicity was determined using the CellTox™ Green (Promega) kit and […] read using an appropriate protocol on a GloMax® Explorer System (Promega). During analysis DMSO containing wells were used as a negative control and lysed cells as a positive control.

[4] = test system: RSV A2 VR-1540; experiment: Second plaque reduction assay (HEp-2 cells); conditions: multiple values = multiple test occasions
Text: as §1, with “maintenance” for “maintainance”
The RSV plaque reduction assay is an infectivity assay which allows quantification of the number of infectious units in a distinct foci of RSV infection. This is indicated by zones of viral antigen detected by specific antibody staining within a monolayer of otherwise healthy tissue culture cells. As each plaque originates from a single infectious virus particle an accurate calculation of the anti-viral effect can be obtained by counting plaques in the presence and absence of an anti-viral compound. HEp-2 cells (ATCC, CCL23) were passaged in flasks and seeded in 96-well plates in DMEM containing antibiotics and supplemented with 10% FBS. During inoculation and subsequent incubation, cells were cultured in DMEM containing 3% FBS. 100 plaque forming unit (PFU)/well of RSV (RSV A2 VR-1540) was mixed with ten serial dilutions of compound. Subsequently, 100 μL of the virus/compound mixtures was added to confluent HEp-2 cell monolayers. The cells and virus/compound mixtures were incubated at 35° C. in a humidified 5% CO2 incubator for 1 day.
Cells were washed twice with PBS before adding 50% v/v EtOH/MeOH, and then stored at −20° C. On the day of the staining, fixative was first removed from the plates. Plates were washed 3× with PBS. A pre-titrated amount of the primary antibody was added in 60 μL PBS/2% milk powder, and plates incubated for 1 h at rt. The plates were washed 3× with PBS/0.05% Tween20 before addition of goat anti-mouse horse radish peroxidase in 60 μL PBS/2% milk powder, and incubated for 1 h at rt. Following three wash steps with PBS/0.05% Tween20, 60 μL ready-to-use TrueBlue was added and plates were incubated at rt for 10-15 min before adding MilliQ water. Plates were washed once with water, incubated for 30-60 min and after removal of water, air-dried in the dark.
Plates were scanned and analyzed using the Immunospot S6 UV analyzer, which is equipped with BioSpot analysis software for counting immunostained plaques (virospots). Plaque counts were used to calculate % infection relative to the mean of the spot count (SC) in the virus control wells for RSV. IC50/IC90 values were calculated as 50% or 90% reduction in signal, respectively, by interpolation of inhibition curves fitted with a 4-parameter nonlinear regression with a variable slope in GraphPad 5.0 (Prism).

[5] = Cell cytotoxicity CC50, HepG2 cells (CellTox Green); conditions: human, 48-hour incubation, multiple values = multiple test occasions, read-out: Tox CC50
Protocol: as §4

[6] = human respiratory syncytial virus, HEp-2, 24 h, read-out: Plaque IC50, HEp-2 cells, RSV A2, 1 day
[7] = read-out: Plaque IC50, HEp-2 cells, RSV A2, 1 day

SMILES | CC50 [3] [µM] | CC50 at 48 h [5] [µM] | IC50 [4, 6] [µM] | IC50 [4, 7] | further results
O=C(CNc1ccccc1)N[C@H]1N=C(c2ccccc2)c2ccccc2NC1=O [Compound 1, N-{(3S)-2-oxo-5-phenyl-2,3-dihydro-1H-1,4-benzodiazepin-3-yl](phenylamino)acetamide] |  |  |  |  | CC50 [1]: 25 µM; IC50 ([2]; A549 cells and HeLa cells, 6-8 days, DMEM+2% FCS): 2.5 µM
CCOc1nc(F)c(F)c(NCC(=O)N[C@H]2N=C(c3ccccc3)c3ccccc3NC2=O)c1F [Compound 4, 2-[(2-ethoxy-3,5,6-trifluoropyridin-4-yl)amino]-N-{(3S)-2-oxo-5-phenyl-2,3-dihydro-1H-1,4-benzodiazepin-3-yl]acetamide] |  |  |  |  | CC50 [1]: > 100 µM; IC50 [2]: 2.5 µM
O=C1Nc2ccccc2C(c2ccccc2)=N[C@@H]1NC(=O)[C@H]1CCCN1c1c(F)c(F)nc(F)c1F [Compound 6, N(2R)-N-[(3S)-2-oxo-5-phenyl-2,3-dihydro-1H-1,4-benzomazepin-3-yl]-1-(2,3,5,6-tetrafluoropyridin-4-yl)pyrrolidine-2-carboxamide] | > 25 |  |  |  | IC50 ([4]; HEp-2 cells, RSV A2, 1 day, read-out: Plaque IC50): 4.39 µM and 8.33 µM
CC(C)[C@H](Nc1c(F)c(F)nc(F)c1F)C(=O)N[C@H]1N=C(c2ccccc2)c2ccccc2NC1=O [Compound 7, (2S)-3-Methyl-N-[(3S)-2-oxo-5-phenyl-2,3-dihydro-1H-1,4-benzodiazepin-3-yl]-2-[(2,3,5,6-tetrafluoropyridin-4-yl)amino]butanamide] | > 25 | 16 | 5.18 | 8.68 µM and 10 µM | 
CC(C)[C@@H](Nc1c(F)c(F)nc(F)c1F)C(=O)N[C@H]1N=C(c2ccccc2)c2ccccc2NC1=O [Compound 8, (2R)-3-Methyl-N-[(3S)-2-oxo-5-phenyl-2,3-dihydro-1H-1,4-benzodiazepin-3-yl]-2-[(2,3,5,6-tetrafluoropyridin-4-yl)amino]butanamide] | 16.3 | > 25 |  |  | 
C[C@H](Nc1c(F)c(F)nc(F)c1F)C(=O)N[C@H]1N=C(c2ccccc2)c2ccccc2NC1=O [Compound 9, (2S)-N-[(3S)-2-oxo-5-phenyl-1,3-dihydro-1,4-benzodiazepin-3-yl]-2-[(2,3,5,6-tetrafluoropyridin-4-yl)amino]propanamide] |  | > 25 | 5.22 | 3.76 µM | 
C[C@@H](Nc1c(F)c(F)nc(F)c1F)C(=O)N[C@H]1N=C(c2ccccc2)c2ccccc2NC1=O [Compound 10, (2R)-N-[(3S)-2-oxo-5-phenyl-1,3-dihydro-1,4-benzodiazepin-3-yl]-2-[(2,3,5,6-tetrafluoropyridin-4-yl)amino]propanamide] |  | > 25 | 3.38 | 1.79 µM | 
O=C(N[C@H]1N=C(c2ccccc2)c2ccccc2NC1=O)[C@H](Cc1ccccc1)Nc1c(F)c(F)nc(F)c1F [Compound 11] | > 25 |  |  |  | 
O=C(CNc1nc(F)c(F)c(N2CCOCC2)c1F)N[C@H]1N=C(c2ccccc2)c2ccccc2NC1=O [Compound 14, N-[(3S)-2-oxo-5-phenyl-2,3-dihydro-1H-1,4-benzodiazepin-3-yl]-2-{[3,5,6-trifluoro-4-(morpholin-4-yl)pyridin-2-yl]amino}acetamide] |  | > 25 |  |  | 
O=C(CNc1cc(Cl)ncn1)N[C@H]1N=C(c2ccccc2)c2ccccc2NC1=O [Compound 18, 2-[(6-Chloropyrimidin-4-yl)amino]-N-[(3S)-2-oxo-5-phenyl-2,3-dihydro-1H-1,4-benzodiazepin-3-yl]acetamide] |  | > 25 | 4.93 | 9.33 µM | 
